Laboratory results as given in patent US10597388B2, “Pyridazinone herbicides” (FMC CORPORATION, priority 2014, dated 2020).

Experiments:
Assay in all cases: Test C greenhouse herbicide test, pre- and postemergence
Type in all cases: in vivo
[1] = test system: johnsongrass (Sorghum halepense)
Summary of the method: (§1)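 Each species was treated both before emergence, in a loam–sand soil mix, and after emergence, as 1- to 4-leaf seedlings in peat-based potting medium. Plants stayed in the greenhouse 13 to 15 d, then were scored from 0 (no effect) to 100 (complete control) relative to controls.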

[2] = test system: oilseed rape (Brassica napus)
Summary of the method: as §1

[3] = test system: pigweed (Amaranthus retroflexus)
Summary of the method: as §1

[4] = test system: crabgrass, large (large crabgrass, Digitaria sanguinalis)
Summary of the method: as §1

[5] = test system: blackgrass (Alopecurus myosuroides)
Summary of the method: as §1

[6] = test system: galium (catchweed bedstraw, Galium aparine)
Summary of the method: as §1

corn (Zea mays) = test system: corn (Zea mays)
Summary of the method: as §1

[7] = test system: lambsquarters (Chenopodium album)
Summary of the method: as §1

[8] = test system: velvetleaf (Abutilon theophrasti)
Summary of the method: as §1

[9] = test system: morningglory (Ipomoea coccinea)
Summary of the method: as §1

[10] = test system: waterhemp (common waterhemp, Amaranthus rudis)
Summary of the method: as §1

[11] = test system: nutsedge, yellow (yellow nutsedge, Cyperus esculentus)
Summary of the method: as §1

[12] = test system: foxtail, giant (giant foxtail, Setaria faberii)
Summary of the method: as §1

[13] = test system: ragweed (common ragweed, Ambrosia elatior)
Summary of the method: as §1

[14] = test system: ryegrass, Italian (Italian ryegrass, Lolium multiflorum)
Summary of the method: as §1

[15] = test system: barnyardgrass (Echinochloa crus-galli)
Summary of the method: as §1

[16] = Postemergence, 31 g ai/ha, scale 0 to 100 (0 no effect, 100 complete control)
[17] = Postemergence, 62 g ai/ha, 0 to 100 scale (0 no effect, 100 complete control)
[18] = Postemergence, 250 g ai/ha, scale 0 to 100, 0 no effect, 100 complete control, 13 to 15 d
[19] = Preemergence, 31 g ai/ha, scale 0 to 100, 0 is no effect, 100 is complete control
[20] = Preemergence, 62 g ai/ha, scale 0 to 100, 0 is no effect, 100 is complete control
[21] = Preemergence, 125 g ai/ha, scale 0 to 100, 0 is no effect, 100 is complete control
[22] = Preemergence, 250 g ai/ha, scale 0 to 100 (0 no effect, 100 complete control)
[23] = postemergence, 125 g ai/ha, scale 0 to 100, 0 no effect, 100 complete control

CCC(=O)Oc1c(C)nn(C)c(=O)c1-c1ccc(Br)c2ccccc12 [Compound 133]
Plant response rating, Johnsongrass [1, 16]: 5
Johnsongrass plant response rating [1, 17]: 10
Plant response rating, Johnsongrass [1, 18]: 10
Plant response rating, Johnsongrass [1, 19]: 5
Plant response rating, Johnsongrass [1, 20]: 35
Plant response rating, Johnsongrass [1, 21]: 30
Johnsongrass plant response rating [1, 22]: 40
Johnsongrass plant response rating [1, 23]: 20
Plant response rating, Oilseed Rape [2, 16]: 95
Oilseed Rape plant response rating [2, 17]: 98
Plant response rating, Oilseed Rape [2, 18]: 98
Plant response rating, Oilseed Rape [2, 19]: 5
Plant response rating, Oilseed Rape [2, 20]: 85
Plant response rating, Oilseed Rape [2, 21]: 90
Oilseed Rape plant response rating [2, 22]: 90
Oilseed Rape plant response rating [2, 23]: 98
Plant response rating, Pigweed [3, 16]: 80
Pigweed plant response rating [3, 17]: 98
Plant response rating, Pigweed [3, 18]: 95
Plant response rating, Pigweed [3, 19]: 100
Plant response rating, Pigweed [3, 20]: 100
Plant response rating, Pigweed [3, 21]: 100
Pigweed plant response rating [3, 22]: 100
Pigweed plant response rating [3, 23]: 100
Plant response rating, Crabgrass, Large [4, 16]: 0
Crabgrass, Large plant response rating [4, 17]: 5
Plant response rating, Crabgrass, Large [4, 18]: 20
Plant response rating, Crabgrass, Large [4, 19]: 0
Plant response rating, Crabgrass, Large [4, 20]: 30
Plant response rating, Crabgrass, Large [4, 21]: 35
Crabgrass, Large plant response rating [4, 22]: 65
Crabgrass, Large plant response rating [4, 23]: 5
Plant response rating, Blackgrass [5, 16]: 45
Blackgrass plant response rating [5, 17]: 35
Plant response rating, Blackgrass [5, 18]: 30
Plant response rating, Blackgrass [5, 19]: 30
Plant response rating, Blackgrass [5, 20]: 60
Plant response rating, Blackgrass [5, 21]: 50
Blackgrass plant response rating [5, 22]: 50
Blackgrass plant response rating [5, 23]: 70
Plant response rating, Galium [6, 16]: 90
Galium plant response rating [6, 17]: 95
Plant response rating, Galium [6, 18]: 100
Plant response rating, Galium [6, 19]: 95
Plant response rating, Galium [6, 20]: 95
Plant response rating, Galium [6, 21]: 100
Galium plant response rating [6, 22]: 100
Galium plant response rating [6, 23]: 98
Plant response rating, Corn (corn (Zea mays); [16]): 5
Corn plant response rating (corn (Zea mays); [17]): 5
Plant response rating, Corn (corn (Zea mays); [18]): 5
Plant response rating, Corn (corn (Zea mays); [19]): 5
Plant response rating, Corn (corn (Zea mays); [20]): 5
Plant response rating, Corn (corn (Zea mays); [21]): 10
Corn plant response rating (corn (Zea mays); [22]): 10
Corn plant response rating (corn (Zea mays); [23]): 5
Plant response rating, Lambsquarters [7, 16]: 95
Lambsquarters plant response rating [7, 17]: 98
Plant response rating, Lambsquarters [7, 18]: 100
Plant response rating, Lambsquarters [7, 19]: 90
Plant response rating, Lambsquarters [7, 20]: 90
Plant response rating, Lambsquarters [7, 21]: 95
Lambsquarters plant response rating [7, 22]: 95
Lambsquarters plant response rating [7, 23]: 100
Plant response rating, Velvetleaf [8, 16]: 85
Velvetleaf plant response rating [8, 17]: 90
Plant response rating, Velvetleaf [8, 18]: 100
Plant response rating, Velvetleaf [8, 19]: 55
Plant response rating, Velvetleaf [8, 20]: 90
Plant response rating, Velvetleaf [8, 21]: 90
Velvetleaf plant response rating [8, 22]: 100
Velvetleaf plant response rating [8, 23]: 100
Plant response rating, Morningglory [9, 16]: 100
Morningglory plant response rating [9, 17]: 100
Plant response rating, Morningglory [9, 18]: 95
Plant response rating, Morningglory [9, 19]: 45
Plant response rating, Morningglory [9, 20]: 85
Plant response rating, Morningglory [9, 21]: 90
Morningglory plant response rating [9, 22]: 95
Morningglory plant response rating [9, 23]: 100
Plant response rating, Waterhemp [10, 16]: 95
Waterhemp plant response rating [10, 17]: 100
Plant response rating, Waterhemp [10, 18]: 100
Plant response rating, Waterhemp [10, 19]: 80
Plant response rating, Waterhemp [10, 20]: 100
Plant response rating, Waterhemp [10, 21]: 95
Waterhemp plant response rating [10, 22]: 100
Waterhemp plant response rating [10, 23]: 100
Plant response rating, Nutsedge, Yellow [11, 16]: 75
Nutsedge, Yellow plant response rating [11, 17]: 90
Plant response rating, Nutsedge, Yellow [11, 18]: 98
Plant response rating, Nutsedge, Yellow [11, 19]: 20
Plant response rating, Nutsedge, Yellow [11, 20]: 55
Plant response rating, Nutsedge, Yellow [11, 21]: 70
Nutsedge, Yellow plant response rating [11, 22]: 95
Nutsedge, Yellow plant response rating [11, 23]: 95
Plant response rating, Foxtail, Giant [12, 16]: 25
Foxtail, Giant plant response rating [12, 17]: 25
Plant response rating, Foxtail, Giant [12, 18]: 55
Plant response rating, Foxtail, Giant [12, 19]: 30
Plant response rating, Foxtail, Giant [12, 20]: 65
Plant response rating, Foxtail, Giant [12, 21]: 75
Foxtail, Giant plant response rating [12, 22]: 90
Foxtail, Giant plant response rating [12, 23]: 40
Plant response rating, Ragweed [13, 16]: 0
Ragweed plant response rating [13, 17]: 0
Plant response rating, Ragweed [13, 18]: 5
Plant response rating, Ragweed [13, 19]: 70
Plant response rating, Ragweed [13, 20]: 75
Plant response rating, Ragweed [13, 21]: 95
Ragweed plant response rating [13, 22]: 98
Ragweed plant response rating [13, 23]: 5
Plant response rating, Ryegrass, Italian [14, 16]: 5
Ryegrass, Italian plant response rating [14, 17]: 10
Plant response rating, Ryegrass, Italian [14, 18]: 5
Plant response rating, Ryegrass, Italian [14, 19]: 90
Plant response rating, Ryegrass, Italian [14, 20]: 95
Plant response rating, Ryegrass, Italian [14, 21]: 100
Ryegrass, Italian plant response rating [14, 22]: 100
Ryegrass, Italian plant response rating [14, 23]: 35
Plant response rating, Barnyardgrass [15, 16]: 15
Barnyardgrass plant response rating [15, 17]: 30
Plant response rating, Barnyardgrass ([15]; Postemergence, 125 g ai/ha, scale 0 to 100, 0 is no effect, 100 is complete control): 45
Plant response rating, Barnyardgrass [15, 18]: 35
Plant response rating, Barnyardgrass [15, 19]: 0
Plant response rating, Barnyardgrass [15, 20]: 40
Plant response rating, Barnyardgrass [15, 21]: 50
Barnyardgrass plant response rating [15, 22]: 95
